Source: PMC3722296 (PLoS ONE, 2013)
Converted amounts (≈) assume the structure as drawn.

Experiments:
S. aureus ATCC25923 = format: cell-based, Staphylococcus aureus; conditions: MIC = 100% growth inhibition; MHB pH 7.3, 5×10^5 CFU/mL, 24 h 37°C, A620 nm; mean of triplicate (n = 3)
Method: (§1) Different S. aureus strains described above were first pre-cultured aerobically at 37°C for 20 h in a Mueller-Hinton-Broth (MHB) medium, pH 7.3 (Difco Laboratories, Detroit, MI). Bacteria were suspended at absorbance of 0.001 at 620 nm in the MHB medium. […] Ten µl final volumes (10–200 µg/mL) of synthetic peptides (LL-37, bCAT, hCAT and bCTL) were incubated in microtitration plates with 90 µl of a mid-logarithmic phase culture of bacteria, with a starting absorbance of 0.001 at 620 nm. In the initial inoculi, bacteria were quantified by the agar plate spreading method which was 5×10^5 colony forming units (CFU)/mL. Tetracycline (10 mg/L) and Cefotaxime (0.1 mg/L) were used as positive controls. Microbial growth was assessed by the increase of absorbance after 24 h incubation at 37°C., [29] The A620 nm value of control cultures growing in the absence of peptide and antibiotics was defined as 100% growth. A620 nm zero with the antibiotics (Tetracycline and Cefotaxime) was taken as 100% inhibition. Absence of bacterial growth was verified by agar plate spreading. Each assay was performed in triplicates.
(§2) The MIC values (µg/mL) are reported as means of three independent experiments. To determine significance, between different peptides (rows) and bacterial strains (columns), one way ANOVA was used. Overall significance and correlation was evaluated by 4×4 factorial ANOVA for independent samples. Significance was accepted at p≤0.05.

S. aureus ATCC49775 = format: cell-based, Staphylococcus aureus; conditions: MIC = 100% growth inhibition; MHB pH 7.3, 5×10^5 CFU/mL, 24 h 37°C, A620 nm; mean of triplicate (n = 3)
Method: as §1, §2

S. aureus S1 (MRSA) = format: cell-based, Staphylococcus aureus; conditions: MIC = 100% growth inhibition; MHB pH 7.3, 5×10^5 CFU/mL, 24 h 37°C, A620 nm; mean of triplicate (n = 3)
Method: (§3) S1 was isolated from the blood of a patient and S2 was isolated from the sputum of a neonate. After isolation and identification, S. aureus strains were assessed for their susceptibility to various antibiotics, using the agar disc diffusion method. S1 was found Methicillin resistant (MRSA) and is also resistant to Amoxicillin, Oxacillin, Amikacin, Tobramycin, Fluoroquinolones, Erythromycin and Clindamycin. However, it was susceptible to Gentamicin, Synercid, Co-trimoxazole, Rifampicin, Fusidic acid, Vancomycin, Teicoplanin and Linezolid.
as §1, §2

S. aureus S2 (MSSA) = format: cell-based, Staphylococcus aureus; conditions: MIC = 100% growth inhibition; MHB pH 7.3, 5×10^5 CFU/mL, 24 h 37°C, A620 nm; mean of triplicate (n = 3)
Method: as §3, §1, §2

[1] = test system: S. aureus metallo-protease aureolysin; conditions: cited from earlier work
Excerpt: Staphylococcus aureus is the most frequently isolated pathogen in Gram-positive sepsis, often involved in blood clotting disorders and destruction of endocardial tissue. S. aureus has developed several mechanisms to avoid immune response including resistance to AMPs, [13] impairment of phagocyte recruitment, [14] escape from neutrophil extracellular traps, [15] interference with complement, [16] neutrophil lysis, resistance to oxidative burst and non-specific binding and degradation of immunoglobulins. The AMPs evasion mechanisms deployed by S. aureus include prote ...

For `CC[C@H](C)[C@H](NC(=O)[C@H](CCCCN)NC(=O)[C@H](CCC(=O)O)NC(=O)[C@H](CCCCN)NC(=O)[C@H](CO)NC(=O)[C@H](CCCCN)NC(=O)[C@H](CCCNC(=N)N)NC(=O)[C@H](Cc1ccccc1)NC(=O)[C@H](Cc1ccccc1)NC(=O)[C@H](CC(=O)O)NC(=O)CNC(=O)[C@H](CC(C)C)NC(=O)[C@@H](N)CC(C)C)C(=O)NCC(=O)N[C@@H](CCCCN)C(=O)N[C@@H](CCC(=O)O)C(=O)N[C@@H](Cc1ccccc1)C(=O)N[C@@H](CCCCN)C(=O)N[C@@H](CCCNC(=N)N)C(=O)N[C@H](C(=O)N[C@H](C(=O)N[C@@H](CCC(N)=O)C(=O)N[C@@H](CCCNC(=N)N)C(=O)N[C@H](C(=O)N[C@@H](CCCCN)C(=O)N[C@@H](CC(=O)O)C(=O)N[C@@H](Cc1ccccc1)C(=O)N[C@@H](CC(C)C)C(=O)N[C@@H](CCCNC(=N)N)C(=O)N[C@@H](CC(N)=O)C(=O)N[C@@H](CC(C)C)C(=O)N[C@H](C(=O)N1CCC[C@H]1C(=O)N[C@@H](CCCNC(=N)N)C(=O)N[C@H](C(=O)N[C@@H](CCC(=O)O)C(=O)N[C@@H](CO)C(=O)O)[C@@H](C)O)C(C)C)[C@@H](C)CC)C(C)C)[C@@H](C)CC` [LL-37, reference compound], the MIC (S. aureus ATCC25923) was 30 µg/mL (≈ 6.68 µM), the MIC (S. aureus ATCC49775) was 30 µg/mL (≈ 6.68 µM) and the MIC (S. aureus S1 (MRSA)) was 30 µg/mL (≈ 6.68 µM). For the same molecule, the MIC (S. aureus S2 (MSSA)) was 35 µg/mL (≈ 7.79 µM) and the cleavage by aureolysin [1] was “cleave and inactivate”.
